# Key:
# [1] = target: estrogen receptor α in MCF7 cells (Homo sapiens (Human), UniProt P03372); assay: Estrogen Receptor (ER) Degradation Assay (In-Cell Western); format: cell-based; conditions: for IC50: 24 hours, In-Cell Western; for % Estrogen Receptor Remaining: vehicle set to 100%
# Description: A screening strategy was implemented utilizing an In-Cell Western assay to measure their ability to degrade the estrogen receptor in vitro. MCF7 cells, which are estrogen receptor positive, were plated at a cell density of […] into black walled clear bottom 96-well plates. Cells were incubated in phenol red free Dulbecco's Modified Eagle Media (DMEM) supplemented with 8% charcoal-stripped fetal bovine calf serum for 24 hours in a humidified 37° C. incubator. Concentrated stock compounds were diluted to 10× in complete media. Compounds were added to the plated cells in a dose-dependent manner ranging from 1E-12 to 1E-05 M and incubated for an additional 24 hours at 37° C. Culture medium was removed from the culture plates by gentle inversion. Cells were fixed in 4% paraformaldehyde in 1× phosphate buffered saline-calcium magnesium free (PBS-CMF) for 15 minutes at room temperature, washed 3 times for 5 minutes each in 1×PBS-CMF. Cells were permeabilized in immunofluorescence (IF) blocking buffer (Cell Signaling #12411) containing 0.3% Triton X100. Cells were washed 3 times for 5 minutes each in 1×PBS-CMF and incubated in estrogen receptor α (D6R2W) rabbit primary antibody (Cell Signaling #13258) diluted 1:300 in IF antibody dilution buffer (Cell Signaling #12378). Cells were washed 3 times for 5 minutes each in 1×PBS-CMF and stained with goat anti-rabbit (Biotium #CF770) secondary antibody diluted 1:2000 in IF antibody dilution buffer and normalizing stain CellTag 700 diluted 1:500 (Licor #926-41090). ER protein expression was assessed by the Licor Odyssey CLx imaging system using Image Studio v5.2. Data is processed utilizing GraphPad Prism 7 by subtracting background from the vehicle and setting the vehicle to 100% ER activity, followed by comparing treated samples to vehicle. This procedure was used to produce the graph in FIG. 2, FIG. 3, FIG. 4, FIG. 5, FIG. 6, FIG. 7, and FIG. 8.
# (§1) In the below table for the Estrogen Receptor Degradation Assay and the Human ERα Reporter Assay: […]
# [2] = target: human estrogen receptor (ERα) (Homo sapiens (Human), UniProt P03372); assay: Human ERα Reporter Assay (Indigo Biosciences); format: cell-based; conditions: antagonist mode, 17β-estradiol 8E-10 M, 24 hours
# Sequence of human estrogen receptor (ERα) (P03372 whole entry): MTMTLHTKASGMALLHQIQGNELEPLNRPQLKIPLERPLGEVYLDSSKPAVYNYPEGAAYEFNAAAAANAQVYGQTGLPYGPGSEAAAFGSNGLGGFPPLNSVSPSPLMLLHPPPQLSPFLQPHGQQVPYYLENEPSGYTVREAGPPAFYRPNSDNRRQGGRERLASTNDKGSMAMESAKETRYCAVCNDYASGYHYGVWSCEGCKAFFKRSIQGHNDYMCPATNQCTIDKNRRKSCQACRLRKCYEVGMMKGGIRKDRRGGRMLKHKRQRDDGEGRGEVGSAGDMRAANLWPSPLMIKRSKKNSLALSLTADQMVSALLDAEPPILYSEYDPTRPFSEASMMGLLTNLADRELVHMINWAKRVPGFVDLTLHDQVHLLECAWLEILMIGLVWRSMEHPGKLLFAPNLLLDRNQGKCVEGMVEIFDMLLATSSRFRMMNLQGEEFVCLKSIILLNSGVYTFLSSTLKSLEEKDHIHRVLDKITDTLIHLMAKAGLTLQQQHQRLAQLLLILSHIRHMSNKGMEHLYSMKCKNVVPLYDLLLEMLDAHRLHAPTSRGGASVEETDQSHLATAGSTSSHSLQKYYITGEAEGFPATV
# Description: All reagents used in this assay was supplied in the Human ERα Reporter Assay by Indigo Biosciences # IB00401. In an effort to screen selective estrogen receptor degraders (SERDs), the Human ERα Reporter Assay, supplied by Indigo Biosciences, was utilized to quantify antagonist functional activity against the human estrogen receptor. Reporter cells were thawed at 37° C. and added to pre-warmed to 37° C. cell recovery medium (CRM). Stock concentration of 17β-estradiol was serially diluted in CRM. Diluted 17β-estradiol was added to CRM containing reporter cells resulting in a working concentration of 1.6 nM (2×). Cells plus 17β-estradiol were dispensed in a kit-supplied white walled 96-well plate. Concentrated stocks of test compounds were diluted to 2× working concentrations in cell screening medium (CSM). 2× concentrated compounds were added to the plated cells in a dose-dependent manner resulting in a final concentration range of 1E-11 to 1E-5 M and a final 17β-estradiol concentration of 8E-10 M. Assay plates were incubated for 24 hours in a humidified 37° C. incubator. Culture medium was removed from the assay plates by inversion. Detection substrate and buffer was warmed to room temperature, mixed thoroughly, and immediately added to the assay plates. Assay plates were incubated for 15 minutes at room temperature protected from light. Luminescence was measured in a Synergy HTX luminescence plate reader. Data is processed utilizing GraphPad Prism 7 by graphing the relative light units measured at each compound concentration. This procedure was used to produce the graph in FIG. 1, FIG. 9, FIG. 10, FIG. 11, FIG. 12, FIG. 13, and FIG. 14.
# as §1
# Sequence of estrogen receptor α in MCF7 cells (P03372 whole entry): as above
Compound,IC50 [1] [nM],IC50 [2] [nM],% Estrogen Receptor Remaining [1]
"Cc1cc(F)cc(C)c1C(=O)c1sc2cc(O)ccc2c1Oc1ccc(OCCN2CCCCC2)cc1 [Compound 106, (4-fluoro-2,6-dimethylphenyl)(6-hydroxy-3-(4-(2-(piperidin-1-yl)ethoxy)phenoxy)benzo[b]thiophen-2-yl)methanone]",–,–,*** (*** denotes 41-70% Estrogen Receptor remaining)
"Cc1cc(F)cc(C)c1C(=O)c1sc2cc(O)ccc2c1-c1ccc(OCCN2CC(CF)C2)cc1 [Compound 120, (4-f1uoro-2,6-dimethylphenyl)(3-(4-(2-(3-(fluoromethyl)azetidin-1-yl)ethoxy)phenyl)-6-hydroxybenzo[b]thiophen-2-yl)methanone]",< 1000,< 50000,*** (*** denotes 41-70% Estrogen Receptor remaining)
"Cc1cc(F)cc(C)c1C(=O)c1sc2cc(O)ccc2c1Oc1ccc(CN)cc1 [Compound 115, (3-(4-(aminomethyl)phenoxy)-6-hydroxybenzo[b]thiophen-2-yl)(4-fluoro-2,6-dimethylphenyl)methanone]",< 1000,< 1000,*** (*** denotes 41-70% Estrogen Receptor remaining)
"CCNCCc1ccc(Oc2c(C(=O)c3c(C)cc(F)cc3C)sc3cc(O)ccc23)cc1 [Compound 100, (3-(4-(2-(ethylamino)ethyl)phenoxy)-6-hydroxybenzo[b]thiophen-2-yl)(4-fluoro-2,6-dimethylphenyl)methanone]",< 1000,< 1000,**** (**** denotes 0-40% Estrogen Receptor remaining)
"CCNCCc1ccc(CN(CC)c2cc(OC)ccc2[C@@H]2CCc3cc(O)ccc3C2)cc1.Cl.Cl (stereo in doubt) [RAD- 1901, reference compound]",–,–,**** (**** denotes 0-40% Estrogen Receptor remaining)
"Cc1cc(F)cc(C)c1C(=O)c1sc2cc(O)ccc2c1-c1ccc(OCCN2CCC(CF)CC2)cc1 [Compound 124, (4-fluoro-2,6-dimethylphenyl)(3-(4-(2-(4-(fluoromethyl)piperidin-1-yl)ethoxy)phenyl)-6-hydroxybenzo[b]thiophen-2-yl)methanone]",< 1000,< 50000,*** (*** denotes 41-70% Estrogen Receptor remaining)
"Cc1cc(F)cc(C)c1C(=O)c1sc2cc(O)ccc2c1Oc1ccc(OCCN2CCCCCC2)cc1 [Compound 107, (3-(4-(2-(azepan-1-yl)ethoxy)phenoxy)-6-hydroxybenzo[b]thiophen-2-yl)(4-fluoro-2,6-dimethylphenyl)methanone]",–,–,*** (*** denotes 41-70% Estrogen Receptor remaining)
"Cc1cc(F)cc(C)c1C(=O)c1sc2cc(O)ccc2c1Oc1ccc(CCN2CC[C@H](C)C2)cc1 [Compound 118, (S)-(4-fluoro-2,6-dimethylphenyl)(6-hydroxy-3-(4-(2-(3-methylpyrrolidin-1-yl)ethyl)phenoxy)benzo[b]thiophen-2-yl)methanone]",< 1000,< 1000,*** (*** denotes 41-70% Estrogen Receptor remaining)
"Cc1cc(F)cc(C)c1C(=O)c1sc2cc(O)ccc2c1Oc1ccc(OCCN2CCCC2)cc1 [Compound 108, (4-fluoro-2,6-dimethylphenyl)(6-hydroxy-3-(4-(2-(pyrrolidin-1-yl)ethoxy)phenoxy)benzo[b]thiophen-2-yl)methanone]",–,–,*** (*** denotes 41-70% Estrogen Receptor remaining)

# Second part, led by results:
IC50 [1] [nM],IC50 [2] [nM],Compound,% Estrogen Receptor Remaining [1]
< 1000,< 1000,"Cc1cc(F)cc(C)c1C(=O)c1sc2cc(O)ccc2c1Oc1ccc(CCN2CC(CF)C2)cc1 [Compound 117, (4-fluoro-2,6-dimethylphenyl)(3-(4-(2-(3-(fluoromethyl)azetidin-1-yl)ethyl)phenoxy)-6-hydroxybenzo[b]thiophen-2-yl)methanone]",*** (*** denotes 41-70% Estrogen Receptor remaining)
< 1000,< 1000,"Cc1cc(F)cc(C)c1C(=O)c1sc2cc(O)ccc2c1Oc1ccc(N2CCCCCC2)cc1 [Compound 102, (3-(4-(azepan-1-yl)phenoxy)-6-hydroxybenzo[b]thiophen-2-yl)(4-fluoro-2,6-dimethylphenyl)methanone]",*** (*** denotes 41-70% Estrogen Receptor remaining)
< 50000,< 1000,"Cc1cc(F)cc(C)c1C(=O)c1sc2cc(O)ccc2c1Oc1ccc(CCNC(C)C)cc1 [Compound 105, (4-fluoro-2,6-dimethylphenyl)(6-hydroxy-3-(4-(2-(isopropylamino)ethyl)phenoxy)benzo[b]thiophen-2-yl)methanone]",**** (**** denotes 0-40% Estrogen Receptor remaining)
< 1000,< 1000,"CCC(CC)NCCc1ccc(Oc2c(C(=O)c3c(C)cc(F)cc3C)sc3cc(O)ccc23)cc1 [Compound 109, (4-fluoro-2,6-dimethylphenyl)(6-hydroxy-3-(4-(2-(pentan-3-ylamino)ethyl)phenoxy)benzo[b]thiophen-2-yl)methanone]",*** (*** denotes 41-70% Estrogen Receptor remaining)
< 1000,< 1000,"Cc1cc(F)cc(C)c1C(=O)c1sc2cc(O)ccc2c1Oc1ccc(CCN)cc1 [Compound 104, (3-(4-(2-aminoethyl)phenoxy)-6-hydroxybenzo[b]thiophen-2-yl)(4-fluoro-2,6-dimethylphenyl)methanone]",*** (*** denotes 41-70% Estrogen Receptor remaining)
< 1000,< 1000,"CCN(CC)CCc1ccc(Oc2c(C(=O)c3c(C)cc(F)cc3C)sc3cc(O)ccc23)cc1 [Compound 112, (3-(4-(2-(diethylamino)ethyl)phenoxy)-6-hydroxybenzo[b]thiophen-2-yl)(4-fluoro-2,6-dimethylphenyl)methanone]",*** (*** denotes 41-70% Estrogen Receptor remaining)
< 1000,< 1000,"CCC(C)NCCc1ccc(Oc2c(C(=O)c3c(C)cc(F)cc3C)sc3cc(O)ccc23)cc1 (stereo not shown) [Compound 111, (3-(4-(2-(sec-butylamino)ethyl)phenoxy)-6-hydroxybenzo[b]thiophen-2-yl)(4-fluoro-2,6-dimethylphenyl)methanone]",**** (**** denotes 0-40% Estrogen Receptor remaining)
< 1000,< 1000,"Cc1cc(F)cc(C)c1C(=O)c1sc2cc(O)ccc2c1Oc1ccc(CN(C)C)cc1 [Compound 114, (3-(4-((dimethylamino)methyl)phenoxy)-6-hydroxybenzo[b]thiophen-2-yl)(4-fluoro-2,6-dimethylphenyl)methanone]",** (** denotes 71-90% Estrogen Receptor remaining)
< 1000,< 1000,"CNCCCc1ccc(Oc2c(C(=O)c3c(C)cc(F)cc3C)sc3cc(O)ccc23)cc1 [Compound 116, (4-fluoro-2,6-dimethylphenyl)(6-hydroxy-3-(4-(3-(methylamino)propyl)phenoxy)benzo[b]thiophen-2-yl)methanone]",*** (*** denotes 41-70% Estrogen Receptor remaining)
< 50000,< 1000,"Cc1cc(F)cc(C)c1C(=O)c1sc2cc(O)ccc2c1Oc1ccc(C2CCCNC2)cc1 (stereo not shown) [Compound 103, (4-fluoro-2,6-dimethylphenyl)(6-hydroxy-3-(4-(piperidin-3-yl)phenoxy)benzo[b]thiophen-2-yl)methanone]",**** (**** denotes 0-40% Estrogen Receptor remaining)
< 1000,< 1000,"Cc1cc(F)cc(C)c1C(=O)c1sc2cc(O)ccc2c1Oc1ccc(N2CCCCC2)cc1 [Compound 101, (4-fluoro-2,6-dimethylphenyl)(6-hydroxy-3-(4-(piperidin-1-yl)phenoxy)benzo[b]thiophen-2-yl)methanone]",*** (*** denotes 41-70% Estrogen Receptor remaining)

# Source: patent US10208011B2, “Benzothiophene estrogen receptor modulators” (G1 Therapeutics, Inc., priority 2017, dated 2019)
